We go through two compounds from ChEMBL document CHEMBL1134429, “The development of a potential single photon emission computed tomography (SPECT) imaging agent for the corticotropin-releasing hormone receptor type” (Bioorg Med Chem Lett, 2001).

Structures are written as SMILES.

This assay concerns the target T1, Corticotropin-releasing factor receptor 1 (Rattus norvegicus, UniProt P35353).
T1 sequence (P35353 whole entry): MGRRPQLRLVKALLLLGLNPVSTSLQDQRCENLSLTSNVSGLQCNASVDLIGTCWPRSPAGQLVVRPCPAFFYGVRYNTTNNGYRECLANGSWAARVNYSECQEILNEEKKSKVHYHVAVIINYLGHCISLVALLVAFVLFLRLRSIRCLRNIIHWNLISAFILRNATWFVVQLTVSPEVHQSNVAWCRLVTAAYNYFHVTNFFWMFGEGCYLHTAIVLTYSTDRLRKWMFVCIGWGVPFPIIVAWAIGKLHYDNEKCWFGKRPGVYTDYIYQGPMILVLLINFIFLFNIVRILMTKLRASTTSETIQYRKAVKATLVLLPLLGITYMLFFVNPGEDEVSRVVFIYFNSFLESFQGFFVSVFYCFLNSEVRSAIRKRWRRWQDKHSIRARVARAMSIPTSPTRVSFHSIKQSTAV
Put plainly: Binding affinity towards Corticotropin releasing hormone receptor type 1 of rat cerebellum using [125I]Tyr-sauvagine as radioligand. The assay is classed as tissue-based.

In the case of `CCCN(CC1CC1)c1nc(C)nc(Nc2c(Cl)cc(I)cc2Cl)c1Cl`, the Ki stood at 14 nM.

Take `CCCN(CC1CC1)c1nc(C)nc(Nc2c(Cl)cc(Cl)cc2Cl)c1Cl`: the Ki came out at 31 nM.

By Ki is commonly meant the equilibrium dissociation constant of an inhibitor or competing ligand from its target. A higher Ki goes with weaker binding.
